Data taken from ChEMBL document CHEMBL5584320, “Pemuchiamides A and B, Proline-Rich Linear Lipopeptides, Isolated from a Marine Hormoscilla sp. Cyanobacterium” (J Nat Prod, 2024).

Experiments:
HeLa = assay: Growth inhibition of human HeLa cells assessed as reduction cell viability incubated for 72 hrs by MTT assay; format: functional, cell-based
HL-60 = assay: Growth inhibition of human HL-60 cells assessed as reduction cell viability incubated for 72 hrs by MTT assay; format: functional, cell-based; conditions: HL-60, 72 h
[1] = tested on: Trypanosoma brucei rhodesiense; assay: Antitrypanosomal activity against blood stream form of Trypanosoma brucei rhodesiense IL-1501 assessed as growth inhibition incubated for 69 hrs by alamar blue staining based microplate fluorescence scanner analysis; format: functional, organism-based; conditions: IL-1501, 69 h

| IC50 (HeLa) [nM] | IC50 (HL-60) [nM] | IC50 [1] [nM] | Structure (SMILES) |
| --- | --- | --- | --- |
| 3900 | 2100 | 5400 | CC[C@H](C)[C@H](NC(=O)[C@@H]1CCCN1C(=O)[C@@H](CC(C)C)NC(=O)[C@H]1CSC([C@@H]2CCCN2C(=O)[C@@H]2CCCN2C(=O)[C@@H](Cc2ccccc2)N(C)C(=O)CNC(=O)[C@@H](NC(=O)C[C@H](O)CNC(=O)CCCc2ccc(O)cc2)C(C)C)=N1)C(=O)N[C@H](Cc1ccccc1)C(=O)N1CCC[C@H]1C(=O)OC |
| 2900 | 1400 | 630 | CC[C@H](C)[C@H](NC(=O)[C@@H]1CCCN1C(=O)[C@@H](CC(C)C)NC(=O)[C@H]1CSC([C@@H]2CCCN2C(=O)[C@@H]2CCCN2C(=O)[C@@H](Cc2ccccc2)N(C)C(=O)CNC(=O)[C@@H](NC(=O)CCCNC(=O)CCCc2ccc(O)cc2)C(C)C)=N1)C(=O)N[C@H](Cc1ccccc1)C(=O)N1CCC[C@H]1C(=O)OC |
| 290 | 11 | – | COc1cccc2c1C(=O)c1c(O)c3c(c(O)c1C2=O)C[C@@](O)(C(=O)CO)C[C@@H]3O[C@H]1C[C@H](N)[C@H](O)[C@H](C)O1 [DOXORUBICIN] |
| – | – | 4 | N=C(N)c1ccc(OCCCCCOc2ccc(C(=N)N)cc2)cc1 [PENTAMIDINE] |
